From ChEMBL document CHEMBL6096649, “Enantiomeric C-6 fluorinated swainsonine derivatives as highly selective and potent inhibitors of α-mannosidase and α-l-rhamnosidase: Design, synthesis and structure-activity relationship study” (Eur J Med Chem, 2025)

Species on record: Sus scrofa
Assay: Inhibition of porcine kidney Alpha alpha-trehalase using p-nitrophenyl glycoside as substrate assessed as release of p-nitrophenol at 1000 uM by spectrometric analysis relative to control

| SMILES | inhibition [%] |
| --- | --- |
| O[C@@H]1[C@@H]2[C@H](O)CCCN2C[C@@H]1O | 0 |
| O[C@H]1[C@H]2[C@H](O)CCCN2C[C@H]1O [TRIDOLGOSIR] | 1 |

Test system: Oryza sativa
Assay: Inhibition of rice Alpha-glucosidase using p-nitrophenyl glycoside as substrate assessed as p-nitrophenol release at 1000 uM by spectrometric analysis relative to control

| SMILES | inhibition [%] |
| --- | --- |
| O[C@@H]1[C@@H]2[C@H](O)CCCN2C[C@@H]1O | 0 |
| O[C@H]1[C@H]2[C@H](O)CCCN2C[C@H]1O [TRIDOLGOSIR] | 31.2 |

Test system: Aspergillus niger
Assay: Inhibition of Aspergillus niger amyloglucosidase using p-nitrophenyl glycoside as substrate assessed as release of p-nitrophenol at 1000 uM by spectrometric analysis relative to control

| SMILES | inhibition [%] |
| --- | --- |
| O[C@@H]1[C@@H]2[C@H](O)CCCN2C[C@@H]1O | 11.4 |
| O[C@H]1[C@H]2[C@H](O)CCCN2C[C@H]1O [TRIDOLGOSIR] | 8.6 |

Target: Alpha-galactosidase (Coffea arabica) (UniProt Q42656)
Sequence (Q42656 16-378 limits assumed): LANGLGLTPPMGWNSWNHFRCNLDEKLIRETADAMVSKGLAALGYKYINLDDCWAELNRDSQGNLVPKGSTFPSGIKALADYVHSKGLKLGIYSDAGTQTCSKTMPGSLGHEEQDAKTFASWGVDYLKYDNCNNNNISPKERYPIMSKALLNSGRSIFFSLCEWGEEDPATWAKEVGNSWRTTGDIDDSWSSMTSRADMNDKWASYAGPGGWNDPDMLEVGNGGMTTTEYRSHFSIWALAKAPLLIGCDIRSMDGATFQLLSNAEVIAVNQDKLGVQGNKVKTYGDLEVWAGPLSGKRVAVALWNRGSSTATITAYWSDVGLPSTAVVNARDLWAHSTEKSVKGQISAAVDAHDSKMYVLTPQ
Assay: Inhibition of coffee bean alpha-galactosidase using p-nitrophenyl glycoside as substrate assessed as release of p-nitrophenol at 1000 uM by spectrometric analysis relative to control

| SMILES | inhibition [%] |
| --- | --- |
| O[C@@H]1[C@@H]2[C@H](O)CCCN2C[C@@H]1O | 0 |
| O[C@H]1[C@H]2[C@H](O)CCCN2C[C@H]1O [TRIDOLGOSIR] | 0 |

Test system: Penicillium decumbens
Assay: Inhibition of Penicillium decumbens alpha-L-rhamnosidase using p-nitrophenyl glycoside as substrate assessed as release of p-nitrophenol at 1000 uM by spectrometric analysis relative to control

| SMILES | inhibition [%] |
| --- | --- |
| O[C@@H]1[C@@H]2[C@H](O)CCCN2C[C@@H]1O | 58 |
| O[C@H]1[C@H]2[C@H](O)CCCN2C[C@H]1O [TRIDOLGOSIR] | 34.2 |

Species on record: Bos taurus
Assay: Inhibition of bovine liver beta-galactosidase using p-nitrophenyl glycoside as substrate assessed as release of p-nitrophenol at 1000 uM by spectrometric analysis relative to control

| SMILES | inhibition [%] |
| --- | --- |
| O[C@@H]1[C@@H]2[C@H](O)CCCN2C[C@@H]1O | 0 |
| O[C@H]1[C@H]2[C@H](O)CCCN2C[C@H]1O [TRIDOLGOSIR] | 5.8 |

Species on record: Rattus norvegicus
Assay: Inhibition of rat intestinal Alpha-glucosidase using p-nitrophenyl glycoside as substrate assessed as p-nitrophenol release at 1000 uM by spectrometric analysis relative to control

| SMILES | inhibition [%] |
| --- | --- |
| O[C@@H]1[C@@H]2[C@H](O)CCCN2C[C@@H]1O | 0 |
| O[C@H]1[C@H]2[C@H](O)CCCN2C[C@H]1O [TRIDOLGOSIR] | 13.1 |

Test system: Prunus dulcis
Assay: Inhibition of almond Beta-glucosidase using p-nitrophenyl glycoside as substrate assessed as release of p-nitrophenol at 1000 uM by spectrometric analysis relative to control

| SMILES | inhibition [%] |
| --- | --- |
| O[C@@H]1[C@@H]2[C@H](O)CCCN2C[C@@H]1O | 1 |
| O[C@H]1[C@H]2[C@H](O)CCCN2C[C@H]1O [TRIDOLGOSIR] | 2.1 |

Species on record: Bos taurus
Assay: Inhibition of bovine liver beta-glucuronidase using p-nitrophenyl glycoside as substrate assessed as release of p-nitrophenol at 1000 uM by spectrometric analysis relative to control

| SMILES | inhibition [%] |
| --- | --- |
| O[C@@H]1[C@@H]2[C@H](O)CCCN2C[C@@H]1O | 8.8 |
| O[C@H]1[C@H]2[C@H](O)CCCN2C[C@H]1O [TRIDOLGOSIR] | 8.8 |

Target: Alpha glucosidase (Homo sapiens) (UniProt O43451+P10253+P14410+Q2M2H8)
Assay: Inhibition of human Alpha-glucosidase using p-nitrophenyl glycoside as substrate assessed as p-nitrophenol release at 1000 uM by spectrometric analysis relative to control
Assay type: protein assay

| SMILES | inhibition [%] |
| --- | --- |
| O[C@@H]1[C@@H]2[C@H](O)CCCN2C[C@@H]1O | 0 |
| O[C@H]1[C@H]2[C@H](O)CCCN2C[C@H]1O [TRIDOLGOSIR] | 0 |

Species on record: Homo sapiens
Assay: Inhibition of human lysosome beta-glucosidase using p-nitrophenyl glycoside as substrate assessed as release of p-nitrophenol at 1000 uM by spectrometric analysis relative to control

| SMILES | inhibition [%] |
| --- | --- |
| O[C@@H]1[C@@H]2[C@H](O)CCCN2C[C@@H]1O | 3.1 |
| O[C@H]1[C@H]2[C@H](O)CCCN2C[C@H]1O [TRIDOLGOSIR] | 0 |

Target: not listed separately
Assay: Inhibition of human liver Alpha-mannosidase

| SMILES | IC50 [nM] |
| --- | --- |
| O[C@H]1[C@H]2[C@H](O)CCCN2C[C@H]1O [TRIDOLGOSIR] | 280 |

Species on record: Bos taurus
Assay: Inhibition of bovine liver beta-glucosidase using p-nitrophenyl glycoside as substrate assessed as release of p-nitrophenol at 1000 uM by spectrometric analysis relative to control

| SMILES | inhibition [%] |
| --- | --- |
| O[C@@H]1[C@@H]2[C@H](O)CCCN2C[C@@H]1O | 0 |
| O[C@H]1[C@H]2[C@H](O)CCCN2C[C@H]1O [TRIDOLGOSIR] | 11.5 |

Test system: Escherichia coli
Assay: Inhibition of Escherichia coli beta-glucuronidase using p-nitrophenyl glycoside as substrate assessed as release of p-nitrophenol at 1000 uM by spectrometric analysis relative to control

| SMILES | inhibition [%] |
| --- | --- |
| O[C@@H]1[C@@H]2[C@H](O)CCCN2C[C@@H]1O | 0 |
| O[C@H]1[C@H]2[C@H](O)CCCN2C[C@H]1O [TRIDOLGOSIR] | 0 |

Target: Alpha-glucosidase (Saccharomyces cerevisiae S288c) (UniProt P53341+P38158+P07265)
Assay: Inhibition of yeast Alpha-glucosidase using p-nitrophenyl glycoside as substrate assessed as p-nitrophenol release at 1000 uM by spectrometric analysis relative to control
Assay type: protein assay

| SMILES | inhibition [%] |
| --- | --- |
| O[C@@H]1[C@@H]2[C@H](O)CCCN2C[C@@H]1O | 3.4 |
| O[C@H]1[C@H]2[C@H](O)CCCN2C[C@H]1O [TRIDOLGOSIR] | 0 |

Target: T1, Alpha-mannosidase (Canavalia ensiformis) (UniProt C0HJB3)
T1 sequence (whole entry): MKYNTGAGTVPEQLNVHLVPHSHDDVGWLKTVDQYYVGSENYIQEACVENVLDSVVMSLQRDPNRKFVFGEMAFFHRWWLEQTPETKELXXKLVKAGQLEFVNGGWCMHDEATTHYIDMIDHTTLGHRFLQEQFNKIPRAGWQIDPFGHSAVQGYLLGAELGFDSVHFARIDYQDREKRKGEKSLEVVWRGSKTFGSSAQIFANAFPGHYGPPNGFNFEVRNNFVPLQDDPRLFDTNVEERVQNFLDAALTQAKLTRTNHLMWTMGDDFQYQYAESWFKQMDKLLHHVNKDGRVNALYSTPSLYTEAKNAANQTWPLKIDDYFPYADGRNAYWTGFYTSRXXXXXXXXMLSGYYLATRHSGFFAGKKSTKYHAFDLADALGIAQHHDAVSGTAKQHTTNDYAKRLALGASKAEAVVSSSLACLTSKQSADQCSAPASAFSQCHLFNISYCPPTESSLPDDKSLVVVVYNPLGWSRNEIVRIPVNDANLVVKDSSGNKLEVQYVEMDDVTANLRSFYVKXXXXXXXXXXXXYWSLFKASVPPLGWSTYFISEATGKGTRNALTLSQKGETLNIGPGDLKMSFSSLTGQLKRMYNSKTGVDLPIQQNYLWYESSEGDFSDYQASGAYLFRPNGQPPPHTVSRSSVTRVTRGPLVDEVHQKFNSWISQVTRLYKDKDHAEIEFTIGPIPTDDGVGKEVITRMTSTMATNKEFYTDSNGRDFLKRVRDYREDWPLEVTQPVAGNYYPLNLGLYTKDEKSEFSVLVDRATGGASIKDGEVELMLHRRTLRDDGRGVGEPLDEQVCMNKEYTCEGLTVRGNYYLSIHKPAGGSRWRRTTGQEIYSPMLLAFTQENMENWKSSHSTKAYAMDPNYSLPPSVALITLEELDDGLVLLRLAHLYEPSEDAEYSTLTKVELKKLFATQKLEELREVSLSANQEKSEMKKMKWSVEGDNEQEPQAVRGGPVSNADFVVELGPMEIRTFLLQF
Assay: Inhibition of jack bean alpha-mannosidase using p-nitrophenyl glycoside as substrate assessed as release of p-nitrophenol at 1000 uM by spectrometric analysis relative to control

| SMILES | inhibition [%] |
| --- | --- |
| O[C@@H]1[C@@H]2[C@H](O)CCCN2C[C@@H]1O | 2.8 |
| O[C@H]1[C@H]2[C@H](O)CCCN2C[C@H]1O [TRIDOLGOSIR] | 0.28 |

Test system: Helix pomatia
Assay: Inhibition of snail beta-mannosidase using p-nitrophenyl glycoside as substrate assessed as release of p-nitrophenol at 1000 uM by spectrometric analysis relative to control

| SMILES | inhibition [%] |
| --- | --- |
| O[C@@H]1[C@@H]2[C@H](O)CCCN2C[C@@H]1O | 11.7 |
| O[C@H]1[C@H]2[C@H](O)CCCN2C[C@H]1O [TRIDOLGOSIR] | 0 |
